Assay results as given in EP0727211A1, “Use of src SH2 specific compounds to treat a bone resorption disease” (SMITHKLINE BEECHAM CORPORATION, priority 1995, dated 1996).

How the values were obtained:
[1] = target: T1, human Grb2 SH2 domain (Homo sapiens, UniProt P62993); assay: SH2 domain / pY peptide binding assay (ELISA-based, 96 well plate), Grb2 SH2; details: for Ki: Ki calculated from IC50 by the expanded equation, Table II; for IC50: cloned human SH2 domain fusion protein, 0.1 uM biotinylated pY peptide, Table I
T1 construct: SH2 domain of human Grb2 (amino acids 58-159); made in house; host or cells: E. coli (pGEX-2T)
Protocol: (§1) The inhibitory activity of compounds at the different human SH2 domains was determined in vitro using SH2 domains expressed as fusion proteins in E. coli. The SH2 domains used herein were the human forms of the src SH2 domain, Grb2 SH2 domain, lck SH2 domain, fyn SH2 domain, SH-PTP2 SH2 domain, p85 SH2 domain and hcp SH2 domain.
(§2) Fusion proteins having the structure GST-X-SH2 were prepared as described in the GST gene fusion kit system available from Pharmacia (New Jersey). GST is the tagging sequence glutathione s-transferase epitope (SEQ ID NO: 8) for fyn, Grb2 and SH-PTP2 and is the tagging sequence glutathione s-transferase epitope (SEQ ID NO: 9) for p85. SH2 refers to the SH2 domains of fyn, Grb2, p85 and SH-PTP2 which were expressed and purified using glutathione Sepharose 4B (Pharmacia) according to "Current Protocols in Molecular Biology", ed. FM Ausubel et al., pub. John Wiley and Sons, Inc., (1995), p 16.7.1. X is an appropriate linker, preferably of 6 to 21 base pairs, used to keep the SH2 construct in frame and complement cloning. As such, the sequence of X is not critical. One skilled in the art can readily construct the appropriate linker. The DNA sequence encoding each GST-X-SH2 fusion protein was designed such that the indicated restriction sites (BamH1 and EcoRI) flank the SH2 region. The vector used in the instant experiments was the E. coli expression vector pGEX-2T (Pharmacia) for fyn, Grb2 and SH-PTP2, and pGEX-3X (Pharmacia) for p85. Each of these vectors result in SH2 constructs having additional C-terminal amino acids as described below.
Human Grb2 SH2 domain: The sequence encoding the SH2 domain of human Grb2 (amino acids 58-159) (Lowenstein, E. et al., Cell 70, 431-442 (1992)) was cloned into the BamHI and EcoRI sites of the expression vector pGEX-2T. The SH2 domain including the additional C-terminal amino acids isoleucine-histidine-arginine-aspartate (SEQ ID NO: 25) was cloned by PCR techniques known to those skilled in the art to yield the expressed fusion protein GST-X-Grb2.
(§3) The binding assays for the SH2 domains and pY peptides were performed in an ELISA-based 96 well plate assay. In Millipore 96 well filter plates, hydrophilic Durapore® (pore size 0.65um Cat. No. MADVN6550), was added 2 ul (50% suspension) of Protein-G Sepharose (available from Pharmacia of N.J. Cat. No. 17-0618-01) and either 2 ul of 2 mg/ml of MAB178. (for gp120/SH2 domain fusion proteins src, lck and hcp) or 0.25 ul of anti-GST polyclonal antisera (available from Pharmacia of N.J.) (for GST/SH2 domain fusion proteins fyn, Grb2, p85 and SH-PTP2). 10 pmol of the subject SH2 domain fusion protein were added to their respective wells. The volume was brought to 100 ul with TBS-T (tris buffered saline plus 0.05% tween-20), incubated and shaken at room trmperature for 1 hr. then washed 1x with TBS-T (4°C). 90 ul of TBS-T were then added to each well. Specific pY biotinylated peptides were diluted to a concentration of 1.0 uM in TBS-T (these peptides can be obtained from Bachem Bioscience of Pennsylvania, Genosys Biotechnologies of Texas and California Peptide Research of California). 10 ul was aliquoted per well to yield a final concentration of 0.1 uM (approx, the Kd for each SH2 domain/peptide pair) and a final volume of 100 ul. The assay plates were incubated until equilibrium binding was attained (3 hr at 4°C with shaking). The assay plates were washed 2 X per well TBS-T (4°C), then 100 ul of SABC (Strepavidin biotinylated horseradish peroxidase complex, available from the Zymed corporation of California cat. no. 93-0043, 1 drop reagent A (streptavidin) and 1 drop of reagent B (AH-biotin conjugated-horseradish peroxidase) per 10 ml of TBS-T, incubated at 37°C for 30 minutes, then cooled to 4°C) was added per well, then incubated at 4°C for 30-60 minutes. The plates were then washed 4 X with TBS-T (4°C) (250 ul/well)/wash). […]

[2] = target: T2, human fyn SH2 domain (Homo sapiens, UniProt P06241); assay: SH2 domain / pY peptide binding assay (ELISA-based, 96 well plate), fyn SH2; details: for Ki: Ki calculated from IC50 by the expanded equation, Table II; for IC50: cloned human SH2 domain fusion protein, 0.1 uM biotinylated pY peptide, Table I
T2 construct: SH2 domain of human fyn (amino acids 143-252); made in house; host or cells: E. coli (pGEX-2T)
Protocol: as §1, §2
The sequence encoding the SH2 domain of human fyn (amino acids 143-252) (Yamamoto, T. et al. Proc. Natl. Acad. Sci. USA 83, 5459-5463 (1986)) was cloned into the BamHI and EcoRI sites of the expression vector pGEX-2T. The SH2 domain including the additional C-terminal amino acids leucine-threonine-asparagine-serine-serine (SEQ ID NO: 10) was cloned by PCR techniques known to those skilled in the art to yield the expressed fusion protein GST-X-fyn.
as §3

T2 sequence (P06241 143-252): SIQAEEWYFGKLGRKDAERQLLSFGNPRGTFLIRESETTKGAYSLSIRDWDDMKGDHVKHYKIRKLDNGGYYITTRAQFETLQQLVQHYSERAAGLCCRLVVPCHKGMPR
T1 sequence (P62993 58-159): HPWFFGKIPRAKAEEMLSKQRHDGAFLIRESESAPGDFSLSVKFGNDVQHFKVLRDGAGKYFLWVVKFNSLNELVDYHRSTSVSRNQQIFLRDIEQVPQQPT

Molecule | Ki [1] [µM] | IC50 [1] [µM] | Ki [2] [µM] | IC50 [2] [µM]
4-acetamido-benzamido-trans-4-methyl-cyclohexyl-N-1-(amino-R-2-(methoxy methyl)-pyrrolidine) carboxamide [Compound 8] | 330 | > 300 | > 1000 | > 300
Cc1nnc(SCC2=C(C(=O)O)N3C(=O)[C@@H](NC(=O)C(N)c4ccc(C(=O)O)cc4)[C@H]3SC2)s1 (stereo partly drawn) [Compound 1, 7-[D,L-α-Amino-α-(4-carboxyphenyl)acetamido]-3-[2-(5-methyl-1,3,4-thiadiazolyl)thiomethyl]Δ^3-cephem-4-carboxylic Acid] | > 1000 | > 300 | > 1000 | > 300
N[C@@H](Cc1cc(Br)c(Oc2ccc(O)c(Cc3ccc(O)nn3)c2)c(Br)c1)C(=O)O [Compound 2, L-3,5-Dibromo-3'-(6-oxo-3(1H)-pyridazinylmethyl)-thyronine] | > 1000 | > 300 | > 1000 | > 300
Cc1nc2sc3c(c2c2[nH][nH]c(=O)c12)CCC1(C3)OCCO1 [Compound 3, 8,8-Ethylenedioxy-2,3,7,8,9,10-hexahydro-4-methyl-1H-benzo[b]thieno[2,3-b]pyrazolo[3,4-d]pyridin-3-one] | > 1000 | > 300 | > 1000 | > 300
Cc1ccc(C(=O)c2ccc(C(=O)c3ccc(CC=O)cc3)cc2)cc1 [Compound 4, 4-[4-(4-Methylbenzoyl)benzoyl]phenylacetaldehyde] | > 1000 | > 300 | > 1000 | > 300
Cc1nc2sc3c(c2c2c1c(=O)[nH]n2C)CCC1(C3)OCCO1 [Compound 5, 1,4-Dimethyl-8,8-ethylenedioxy-2,3,7,8,9,10-hexahydro-1H-benzo[b]thieno[2,3-b]pyrazolo[3,4-d]pyridin-3-one] | > 1000 | > 300 | > 1000 | > 300
CCCCCCNC(=O)[C@H]1CC[C@H](CNC(=O)c2ccc([N+](=O)[O-])cc2)CC1 [Compound 7, 4-nitro-benzamido-trans-4-methyl-cyclohexyl-N-hexyl carboxamide] | > 1000 | > 300 | > 1000 | > 300
CCCNC(=O)[C@H]1CC[C@H](CNC(=O)/C=C/c2ccc(C=O)cc2)CC1 [Compound 9, 4-formyl-E-cinnamido-trans-4-methyl-cyclohexyl-N-(propyl) carboxamide] | > 1000 | > 300 | > 1000 | > 300
Cc1nc2sc3c(c2c2[nH][nH]c(=O)c12)CCCC3 [Compound 10, 2,3,7,8,9,10-Hexahydro-4-methyl-1H-benzo[b]thieno[2,3-b]pyrazolo[3,4-d]pyridin-3-one] | > 1000 | > 300 | > 1000 | > 300
